This note sets out measurements from article PMC8409970, “In vitro and in silico studies of bis (indol-3-yl) methane derivatives as potential α-glucosidase and α-amylase inhibitors” (Journal of Enzyme Inhibition and Medicinal Chemistry, 2021).

For one assay, the target named is T1, α-amylase (Sus scrofa, UniProt P00690).
T1 sequence (P00690 16-511): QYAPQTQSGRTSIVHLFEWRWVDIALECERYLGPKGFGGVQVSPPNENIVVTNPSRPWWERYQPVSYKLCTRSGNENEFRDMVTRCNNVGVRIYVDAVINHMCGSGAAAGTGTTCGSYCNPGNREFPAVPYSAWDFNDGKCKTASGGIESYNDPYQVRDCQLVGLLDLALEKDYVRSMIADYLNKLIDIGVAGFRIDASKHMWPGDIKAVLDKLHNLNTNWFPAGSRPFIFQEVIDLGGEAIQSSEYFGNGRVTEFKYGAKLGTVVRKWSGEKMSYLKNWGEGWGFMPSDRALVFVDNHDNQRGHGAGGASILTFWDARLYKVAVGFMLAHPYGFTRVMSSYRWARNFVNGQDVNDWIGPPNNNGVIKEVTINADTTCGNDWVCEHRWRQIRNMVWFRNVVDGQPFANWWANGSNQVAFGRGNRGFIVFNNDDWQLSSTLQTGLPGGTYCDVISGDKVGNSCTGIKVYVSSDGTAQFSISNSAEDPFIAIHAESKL
Nature of the assay: α-Amylase inhibition assay (starch/DNS). It is filed as biochemical. The note with it: starch substrate, pH 6.9, 37 °C. As for the experimental part: The α-amylase inhibitory activity of all tested compounds was performed according to previous report.[33]^,[34] A 10 μL of α-amylase enzyme solution (final concentration 0.25 U/mL), 10 μL of test compounds (dissolved in DMSO), and 80 μL of phosphate buffer (20 mM, pH 6.9) were mixed and incubated for 10 min at 37 °C. Next, 100 μL starch solution (final concentration 0.5%) was added into the mixture followed by an incubation of 10 min. After 100 μL DNS (containing 1 M Potassium sodium tartrate and 48 mM 3,5-Dinitrosalicylic acid) was added, the mixture was kept incubated in boiling water for 15 min. Finally, the absorbance was measured at 540 nm after dilution of solution by adding 900 μL distilled water. The percentage of enzyme inhibition was calculated: % Inhibition = [(A1– A0)/A0] × 100%, where A1 was the absorbance with the test compound, and A0 was the absorbance without the test compound. The IC50 value of compound was obtained from the plot of inhibition percentage vs test compound at different concentrations. […] The experiment was performed in duplicate.

The target of another assay is α-glucosidase (Saccharomyces cerevisiae, UniProt P53341). The assay can be described thus: α-Glucosidase inhibition assay (PNPG substrate). It is filed as biochemical. To be noted: pH 6.8, 37 °C. As for the experimental part: The in vitro α-glucosidase inhibitory activities of all synthesised compounds were evaluated using p-nitrophenyl-α-D-glucopyranoside (PNPG) as substrate.
α-glucosidase, sequence (P53341 whole entry): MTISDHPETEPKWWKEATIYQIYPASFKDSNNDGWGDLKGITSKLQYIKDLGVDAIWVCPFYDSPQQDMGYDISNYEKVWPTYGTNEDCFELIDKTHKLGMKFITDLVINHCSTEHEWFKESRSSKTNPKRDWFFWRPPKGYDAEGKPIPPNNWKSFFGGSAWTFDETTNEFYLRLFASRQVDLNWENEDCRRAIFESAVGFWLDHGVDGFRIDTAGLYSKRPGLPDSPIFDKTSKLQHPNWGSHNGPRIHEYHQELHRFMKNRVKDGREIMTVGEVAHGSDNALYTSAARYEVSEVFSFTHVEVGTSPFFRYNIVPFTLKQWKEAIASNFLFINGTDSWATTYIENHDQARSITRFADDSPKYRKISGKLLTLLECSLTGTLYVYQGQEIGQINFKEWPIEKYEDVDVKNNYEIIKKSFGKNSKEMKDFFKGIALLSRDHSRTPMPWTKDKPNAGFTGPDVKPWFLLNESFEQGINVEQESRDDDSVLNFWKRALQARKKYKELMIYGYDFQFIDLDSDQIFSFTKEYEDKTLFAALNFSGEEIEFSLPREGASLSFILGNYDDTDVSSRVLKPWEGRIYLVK
The α-glucosidase inhibitory activity of compounds 5a ∼ c, 6a ∼ c, and 7a ∼ c were performed according to our previous report.[30]^,[31] The 10 μL of α-glucosidase enzyme (final concentration 0.1 U/mL) and 10 μL of test compounds (dissolved in DMSO) were added into 130 μL of phosphate buffer (0.1 M, pH 6.8), followed 10 min incubation at 37 °C. Then 50 μL of PNPG (final concentration 0.25 mM) was added, and mixture was continuely incubated for 20 min at 37 °C. The absorbance at 405 nm was measured using Multimodel Reader. The percentage of enzyme inhibition was calculated: % Inhibition = [(A1– A0)/A0] × 100%, where A1 was the absorbance with the test compound, and A0 was the absorbance without the test compound. The IC50 value of compound was obtained from the plot of inhibition percentage vs test compound at different concentrations. […] The experiment was performed in duplicate.

In the case of “2,2-Di(1H-pyrrol-3-yl)acetonitrile [Compound 6c]”, the half-inhibitory concentration (IC50) amounted to 419 ± 11.3 µM at α-amylase and 130 ± 3.81 µM against α-glucosidase.
For “2,2-Bis(1-methyl-1H-pyrrol-3-yl)acetonitrile [Compound 6a]”, in that order: 464 ± 9.47 µM and 220 ± 5.02 µM.

One may read the IC50 as the midpoint of a concentration-inhibition curve. The low end stands for greater potency, the high end for weaker potency.
